Converted amounts (≈) assume the structure as drawn. The source made the active and inactive calls. No cut-off for these calls is given here.
Columns and labels:
[1] = system: Bacillus subtilis; test: Antibacterial activity against Bacillus subtilis ATCC 6633 assessed as bacterial growth inhibition incubated for 18 hrs by CLSI based micro-dilution broth method; assay type: functional
[2] = system: Enterococcus faecalis; test: Antibacterial activity against Enterococcus faecalis ATCC 19433 assessed as bacterial growth inhibition incubated for 18 hrs by micro-dilution broth method; assay type: functional
[3] = system: Streptococcus pyogenes; test: Antibacterial activity against Streptococcus pyogenes ATCC 12344 assessed as bacterial growth inhibition incubated for 18 hrs by micro-dilution broth method; assay type: functional
[4] = system: Staphylococcus aureus; test: Antibacterial activity against Staphylococcus aureus ATCC 25923 assessed as bacterial growth inhibition incubated for 18 hrs by micro-dilution broth method; assay type: functional
[5] = system: Escherichia coli; test: Antibacterial activity against Escherichia coli CCUG assessed as bacterial growth inhibition incubated for 18 hrs by micro-dilution broth method; assay type: functional
[6] = system: Klebsiella pneumoniae; test: Antibacterial activity against Klebsiella pneumoniae ATCC 13833 assessed as bacterial growth inhibition incubated for 18 hrs by micro-dilution broth method; assay type: functional
[7] = system: Acinetobacter baumannii; test: Antibacterial activity against Acinetobacter baumannii ATCC 17978 assessed as bacterial growth inhibition incubated for 18 hrs by micro-dilution broth method; assay type: functional
[8] = system: Pseudomonas aeruginosa; test: Antibacterial activity against Pseudomonas aeruginosa ATCC 27853 assessed as bacterial growth inhibition incubated for 18 hrs by micro-dilution broth method; assay type: functional
[9] = system: Lipid bilayer; test: Binding affinity to bacterial membrane mimic POPG large unilamellar vesicle assessed as hyperchromic shift at 125 uM measured after 1 hr by UV-Vis spectrophotometric analysis
[10] = system: Lipid bilayer; test: Binding affinity to bacterial membrane mimic POPG large unilamellar vesicle assessed as bathochromic shift at 125 uM measured at t = 0 by UV-Vis spectrophotometric analysis
[11] = system: Enterobacter cloacae; test: Antibacterial activity against Enterobacter cloacae VA-417/02 assessed as bacterial growth inhibition incubated for 18 hrs by CLSI based micro-dilution broth method; assay type: functional
[12] = system: Klebsiella pneumoniae; test: Antibacterial activity against pan drug-resistant Klebsiella pneumoniae S1-081Rb assessed as bacterial growth inhibition incubated for 18 hrs by CLSI based micro-dilution broth method; assay type: functional
[13] = system: Acinetobacter baumannii; test: Antibacterial activity against Acinetobacter baumannii AC-54/97 assessed as bacterial growth inhibition incubated for 18 hrs by CLSI based micro-dilution broth method; assay type: functional

Compound | MIC [1] [µg/mL] | MIC [2] [µg/mL] | MIC [3] [µg/mL] | MIC [4] [µg/mL] | MIC [5] [µg/mL] | MIC [6] [µg/mL] | MIC [7] [µg/mL] | MIC [8] [µg/mL] | Activity [9] | Activity [10] | MBC [11] [µg/mL] | MIC [11] [µg/mL] | MBC [12] [µg/mL] | MIC [12] [µg/mL] | MBC [13] [µg/mL] | MIC [13] [µg/mL]
CNC(=O)NCCCCCCCCNC(=N)NCC1CC1.O=C(O)C(F)(F)F | 64 | 64 | 128 | 32 | 128 | 128 | > 128 | > 128 |  |  |  |  |  |  |  | 
N=C(NCCCCCCCCNC(=O)N(CCCCCCCCNC(=N)NCC1CC1)CCCCCCCCNC(=N)NCC1CC1)NCC1CC1.O=C(O)C(F)(F)F | 1 | 8 | 1 | 4 | 8 | 8 | 64 | 64 | Active | Active |  |  |  |  |  | 
N=C(NCCCCCCCCNC(=O)NCCCCCCCCNC(=N)NCC1CC1)NCC1CC1 | > 128 | 64 (≈ 126 µM) | 8 (≈ 15.8 µM) | 128 (≈ 253 µM) | 64 (≈ 126 µM) | > 128 |  | > 128 |  |  |  |  |  |  |  | 
CNC(=O)N(CCCCCCCCNC(=N)NCC1CC1)CCCCCCCCNC(=N)NCC1CC1 | 32 (≈ 61.4 µM) | 64 (≈ 123 µM) | 8 (≈ 15.4 µM) | 128 (≈ 246 µM) | 128 (≈ 246 µM) | 128 (≈ 246 µM) | > 128 | > 128 |  |  |  |  |  |  |  | 
N=C(NCCCCCCCCN(CCCCCCCCNC(=N)NCC1CC1)C(N)=O)NCC1CC1.O=C(O)C(F)(F)F | 8 | 16 | 2 | 16 | 32 | 32 | 128 | 128 |  |  |  |  |  |  |  | 
CCCCCCCCCC(=O)N[C@@H](Cc1c[nH]c2ccccc12)C(=O)N[C@H](CC(N)=O)C(=O)N[C@@H](CC(=O)O)C(=O)N[C@@H]1C(=O)NCC(=O)N[C@@H](CCCN)C(=O)N[C@@H](CC(=O)O)C(=O)N[C@H](C)C(=O)N[C@@H](CC(=O)O)C(=O)NCC(=O)N[C@H](CO)C(=O)N[C@@H]([C@H](C)CC(=O)O)C(=O)N[C@@H](CC(=O)c2ccccc2N)C(=O)O[C@@H]1C | 1 (≈ 0.617 µM) | 1 (≈ 0.617 µM) | 0.5 (≈ 0.309 µM) | 0.12 (≈ 0.074 µM) |  |  |  |  |  |  |  |  |  |  |  | 
COLISTIN |  |  |  |  | 0.5 | 0.5 | 1 | 0.5 |  |  |  |  |  |  |  | 
N=C(N)NCCCCCCCCN(CCCCCCCCN)C(=O)N(CCCCCCCCNC(=N)N)CCCCCCCCNC(=N)N | 1 (≈ 1.44 µM) | 4 (≈ 5.75 µM) | 0.25 (≈ 0.36 µM) | 1 (≈ 1.44 µM) | 2 (≈ 2.88 µM) | 8 (≈ 11.5 µM) | 16 (≈ 23 µM) | 16 (≈ 23 µM) | Active | Active | 8 (≈ 11.5 µM) | 8 (≈ 11.5 µM) | 16 (≈ 23 µM) | 16 (≈ 23 µM) | 8 (≈ 11.5 µM) | 8 (≈ 11.5 µM)
CCCCCCCCN(CCCCCCCCNC(=N)NCC1CC1)C(=O)N(CCCCCCCC)CCCCCCCCNC(=N)NCC1CC1.O=C(O)C(F)(F)F | 128 | 32 | 8 | > 128 | > 128 | 128 | > 128 | > 128 |  |  |  |  |  |  |  | 
CCCCCCCCN(CCCCCCCC)C(=O)N(CCCCCCCC)CCCCCCCCNC(=N)NCC1CC1.O=C(O)C(F)(F)F | 64 | 128 | 16 | > 128 | > 128 | > 128 | > 128 | > 128 |  |  |  |  |  |  |  | 
N=C(N)NCCCCCCCCN(CCCCCCCCNC(=N)N)C(=O)N(CCCCCCCCNC(=N)N)CCCCCCCCNC(=N)NCC1CC1.O=C(O)C(F)(F)F | 2 | 2 | 1 | 2 | 8 | 4 | 8 | 16 |  |  | 8 | 8 | 16 | 8 | 16 | 8
CCCCCCCCN(CCCCCCCC)C(=O)N(CCCCCCCCNC(=N)NCC1CC1)CCCCCCCCNC(=N)NCC1CC1.O=C(O)C(F)(F)F | 128 | 128 | 4 | > 128 | 128 | 64 | 128 | > 128 |  |  |  |  |  |  |  | 
CN[C@H](CC(C)C)C(=O)N[C@H]1C(=O)N[C@@H](CC(N)=O)C(=O)N[C@H]2C(=O)N[C@H]3C(=O)N[C@H](C(=O)N[C@H](C(=O)O)c4cc(O)cc(O)c4-c4cc3ccc4O)[C@H](O)c3ccc(c(Cl)c3)Oc3cc2cc(c3O[C@@H]2O[C@H](CO)[C@@H](O)[C@H](O)[C@H]2O[C@H]2C[C@](C)(N)[C@H](O)[C@H](C)O2)Oc2ccc(cc2Cl)[C@H]1O [VANCOMYCIN] | 0.5 (≈ 0.345 µM) | 1 (≈ 0.69 µM) | 1 (≈ 0.69 µM) |  |  |  |  |  |  |  |  |  |  |  |  | 

Continued, in another order:

MIC [1] [µg/mL] | MIC [2] [µg/mL] | MIC [3] [µg/mL] | MIC [4] [µg/mL] | MIC [5] [µg/mL] | MIC [6] [µg/mL] | MIC [7] [µg/mL] | MIC [8] [µg/mL] | Compound | Activity [9] | Activity [10] | MBC [11] [µg/mL] | MIC [11] [µg/mL] | MBC [12] [µg/mL] | MIC [12] [µg/mL] | MBC [13] [µg/mL] | MIC [13] [µg/mL]
1 (≈ 1.32 µM) | 2 (≈ 2.64 µM) | 1 (≈ 1.32 µM) | 2 (≈ 2.64 µM) | 4 (≈ 5.28 µM) | 8 (≈ 10.6 µM) | 32 (≈ 42.2 µM) | 64 (≈ 84.4 µM) | CCCCCCN(CCCCCCNC(=N)NCC1CC1)C(=O)N(CCCCCCCCNC(=N)NCC1CC1)CCCCCCNC(=N)NCC1CC1 |  |  |  |  |  |  |  | 
2 (≈ 2.46 µM) | 2 (≈ 2.46 µM) | 1 (≈ 1.23 µM) | 1 (≈ 1.23 µM) | 2 (≈ 2.46 µM) | 2 (≈ 2.46 µM) | 4 (≈ 4.91 µM) | 8 (≈ 9.82 µM) | CCCCCCCCN(CCCCCCNC(=N)NCC1CC1)C(=O)N(CCCCCCCCNC(=N)NCC1CC1)CCCCCCCCNC(=N)NCC1CC1 |  |  |  |  |  |  |  | 
2 (≈ 2.37 µM) | 2 (≈ 2.37 µM) | 1 (≈ 1.19 µM) | 16 (≈ 19 µM) | 4 (≈ 4.75 µM) | 4 (≈ 4.75 µM) | 4 (≈ 4.75 µM) | 8 (≈ 9.5 µM) | CCCCCCCCN(CCCCCCCCNC(=N)NCC1CC1)C(=O)N(CCCCCCCCNC(=N)NCC1CC1)CCCCCCCCNC(=N)NCC1CC1 | Active | Active |  |  |  |  |  | 
4 (≈ 7.03 µM) | 16 (≈ 28.1 µM) | 4 (≈ 7.03 µM) | 8 (≈ 14.1 µM) | 32 (≈ 56.2 µM) | 16 (≈ 28.1 µM) | 16 (≈ 28.1 µM) | 32 (≈ 56.2 µM) | NCCCCCCCCN(CCCCCCCCN)C(=O)N(CCCCCCCCN)CCCCCCCCN |  |  |  |  |  |  |  | 
4 (≈ 6.55 µM) | 32 (≈ 52.4 µM) | 16 (≈ 26.2 µM) | 2 (≈ 3.27 µM) | 32 (≈ 52.4 µM) | 64 (≈ 105 µM) | 64 (≈ 105 µM) | 128 (≈ 209 µM) | N=C(N)NCCCCCCCCN(CCCCCCCCN)C(=O)N(CCCCCCCCN)CCCCCCCCN | Active | Active |  |  |  |  |  | 
> 128 | > 128 | > 128 | > 128 | > 128 | > 128 | > 128 | > 128 | CCCCCCCCN(CCCCCCCC)C(=O)N(CCCCCCCC)CCCCCCCC |  |  |  |  |  |  |  | 
32 (≈ 59.2 µM) | > 128 | 128 (≈ 237 µM) | 128 (≈ 237 µM) | > 128 | > 128 | > 128 | > 128 | N=C(N)NCCCCCCN(CCCCCCN)C(=O)N(CCCCCCN)CCCCCCNC(=N)N |  |  |  |  |  |  |  | 
0.5 (≈ 0.766 µM) | 8 (≈ 12.2 µM) | 0.25 (≈ 0.383 µM) | 0.5 (≈ 0.766 µM) | 2 (≈ 3.06 µM) | 16 (≈ 24.5 µM) | 16 (≈ 24.5 µM) | 32 (≈ 49 µM) | N=C(N)NCCCCCCCCN(CCCCCCCCNC(=N)N)C(=O)N(CCCCCCCCN)CCCCCCCCN |  |  |  |  |  |  |  | 
2 (≈ 2.46 µM) | 1 (≈ 1.23 µM) | 1 (≈ 1.23 µM) | 2 (≈ 2.46 µM) | 4 (≈ 4.91 µM) | 8 (≈ 9.82 µM) | 8 (≈ 9.82 µM) | 16 (≈ 19.6 µM) | CCCCCCN(CCCCCCCCNC(=N)NCC1CC1)C(=O)N(CCCCCCCCNC(=N)NCC1CC1)CCCCCCCCNC(=N)NCC1CC1 |  |  |  |  |  |  |  | 
